In patent US10112955B2, “Isoindoline, azaisoindoline, dihydroindenone and dihydroazaindenone inhibitors of Mnk1 and Mnk2” (eFFECTOR THERAPEUTICS, INC., priority 2015, dated 2018):

Experiments:
MNK1 = MNK1 (Homo sapiens (Human), UniProt Q9BUB5); experiment: MNK Biochemical Enzymatic Assay (ADP-Glo), MNK1; settings: 10 nM recombinant MNK1, 100 μM substrate peptide, 300 μM ATP; read-out: IC50 Mnk1
Experimental: (§1) Compounds are screened for MNK inhibition using the ADP-Glo kinase assay kit (Promega, catalogue No. V9101). All kinase reactions are performed in Reaction Buffer E (15 mM HEPES pH7.4, 20 mM NaCl, 1 mM EGTA, 10 mM MgCl2, 0.1 mg/ml BGG, and 0.02% Tween-20). […] Final DMSO concentration in each reaction is 1%.
(§2) Kinase reactions are carried out in 96-well half-area white flat-bottom polystyrene plates in a final volume of 25 μl. MNK1/2 enzymes are pre-incubated with compound and peptide substrate for 5 minutes prior to the addition of ATP. After the addition of ATP, kinase reactions are incubated at room temperature for 40 minutes. Reactions are subsequently stopped by the addition of 25 μl of ADP-Glo Reagent and incubating for an additional 40 minutes. The final luminescent signal used for kinase activity readout is produced by the addition of 45 μl of Kinase Detection Reagent (ADP-Glo kit, Promega) and incubating for 40 minutes.

MNK2 = MNK2 (Homo sapiens (Human), UniProt Q9HBH9); experiment: MNK Biochemical Enzymatic Assay (ADP-Glo), MNK2; settings: 3 nM recombinant MNK2, 50 μM substrate peptide, 10 μM ATP
Experimental: as §1, §2

Phosphorylated eIF4E = experiment: peIF4E Signaling Cellular Assay (CisBio peIF4E HTRF); assay type: cell-based; settings: cells incubated with compound for 2 hrs at 37° C., 12-point curve
Experimental: Phosphorylated eIF4E is assayed using the CisBio peIF4E HTRF® assay kit (CisBio, catalogue No. 64EF4PEG). Cells are plated in 96-well tissue-culture treated plate in appropriate growth medium (90 μL). Compounds (10×) are diluted using 3-fold serial dilutions in cell culture medium and added to cells. Plates are incubated for 2 hrs at 37° C. The cell supernatant is carefully removed either by aspirating supernatant or by flicking the plate. Immediately 50 μL of supplemented lysis buffer (1×) is added and incubated for at least 30 minutes at room temperature under shaking. After homogenization by pipeting up and down, 16 μL of cell lysate is transferred from the 96-well cell-culture plate to a 384-well small volume white plate. 4 μL of premixed antibody solutions (vol/vol) is prepared in the detection buffer and added. The plate is covered with a plate sealer and incubated overnight at room temperature. The fluorescence emissions at two different wavelengths are read (665 nm and 620 nm) on a Wallac Victor2. Emission ratios are converted into percent inhibitions and imported into GraphPad Prism software. […] IC50 values are determined using a nonlinear regression model available in GraphPad Prism 5.

[1] = Pharmacokinetics, single oral gavage administration; assay type: in vivo; settings: male Sprague Dawley rats, single oral gavage 10 mg/kg, N = 3/group (Cpd. 71 N = 2), formulation 10% NMP/90% PEG400 (Cpd. 57: 10% DMA/90% PEG300); for AUC(0-inf) / Cmax / Tmax / half-life: rat, plasma
Experimental: (§3) Groups of Balb/c mice or Sprague-Dawley rats (n≥3 per dose group) are administered single doses of test compound. Compounds are formulated either as solutions in 10% N-methylpyrrolidone, 90% polyethyleneglycol 400 or as suspensions in 0.5% methylcellulose in water for oral gavage administration at a nominal dose level of 10 mg/kg. Compounds are formulated in 10% dimethylisosorbide, 15% ethanol, 35% propylene glycol, and 40% saline (or 40% D5W) for intravenous administration at a nominal dose level of 1 mg/kg. For intravenously dosed animals, blood samples are collected at 0.083, 0.25, 0.5, 1, 2, 4, 8, and 24 h post dose. For orally dosed animals, blood samples are collected at 0.25, 0.5, 1, 2, 4, 8, and 24 h post dose. Blood samples are collected from mice either serially via submandibular vein (approximately 0.1 mL each) or terminally via cardiac puncture (approximately 0.5 mL each). Blood samples are collected serially from rats via jugular vein catheter (approximately 0.2 mL each). Each blood sample is collected into a tube that is chilled and contains potassium EDTA as the anticoagulant. Plasma is separated and stored at approximately −80 C until analysis. Following protein precipitation with acetonitrile containing an internal standard, plasma samples are analyzed using a liquid chromatography/high-resolution mass spectrometry (LC-HRMS) method to determine plasma concentrations. Plasma concentration versus time data are subjected to noncompartmental pharmacokinetic analysis using Phoenix™ Winnonlin® (Certara LP) to determine pharmacokinetic parameters, including Area Under the Curve (AUC), Clearance (Cl), Volume of Distribution at Steady-State (Vss), and terminal half-life (T1/2). Data from orally and intravenously dose are highlighted in Tables 3 and 4, respectively.

[2] = Pharmacokinetics, single intravenous bolus administration; assay type: in vivo; settings: rat, plasma, male Sprague Dawley rats, single intravenous bolus 1 mg/kg, N = 3/group, formulation 10% NMP/15% EtOH/35% PEG400/40% D5W (Cpd. 57: 10% DMA/15% EtOH/35% PEG400/40% D5W); for half-life: read-out: T½ (converted); for Vd: read-out: Vss
Experimental: as §3, with “Compounds are formulated in 10% dimethylisosorbide, 15% ethanol, 35% propylene glycol, and 40% saline (or 40% D5W) for intravenous administration at a nominal dose level of 1 mg/kg.” left out

MNK1, sequence (Q9BUB5 whole entry): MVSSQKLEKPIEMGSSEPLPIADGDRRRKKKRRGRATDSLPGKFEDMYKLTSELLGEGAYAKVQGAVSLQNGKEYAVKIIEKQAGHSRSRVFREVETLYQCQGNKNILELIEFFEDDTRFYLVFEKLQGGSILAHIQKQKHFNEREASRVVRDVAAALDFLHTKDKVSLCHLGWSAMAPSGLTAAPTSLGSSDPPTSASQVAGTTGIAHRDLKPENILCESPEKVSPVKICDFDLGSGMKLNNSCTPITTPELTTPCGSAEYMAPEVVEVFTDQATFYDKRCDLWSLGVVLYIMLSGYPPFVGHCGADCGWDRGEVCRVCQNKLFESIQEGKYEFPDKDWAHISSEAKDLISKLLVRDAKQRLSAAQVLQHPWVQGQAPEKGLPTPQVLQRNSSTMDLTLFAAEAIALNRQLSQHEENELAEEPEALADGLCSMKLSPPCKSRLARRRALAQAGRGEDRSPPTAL
MNK2, sequence (Q9HBH9 whole entry): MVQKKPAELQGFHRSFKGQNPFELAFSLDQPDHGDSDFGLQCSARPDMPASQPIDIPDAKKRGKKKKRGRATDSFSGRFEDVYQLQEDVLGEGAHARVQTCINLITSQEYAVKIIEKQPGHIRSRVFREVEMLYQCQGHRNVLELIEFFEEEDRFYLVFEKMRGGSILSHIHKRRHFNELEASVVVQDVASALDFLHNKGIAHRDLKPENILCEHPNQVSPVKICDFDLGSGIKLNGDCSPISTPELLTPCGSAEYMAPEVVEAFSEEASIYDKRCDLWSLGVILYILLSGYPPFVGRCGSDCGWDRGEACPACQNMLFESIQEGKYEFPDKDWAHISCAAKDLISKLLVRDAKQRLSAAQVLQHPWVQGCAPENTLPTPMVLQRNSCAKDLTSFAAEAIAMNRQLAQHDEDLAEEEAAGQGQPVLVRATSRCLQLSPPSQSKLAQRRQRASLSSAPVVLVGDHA

| IC50 (MNK1) | IC50 (MNK2) | IC50 (Phosphorylated eIF4E) | F [1] | AUC(0-inf) [1] | Cmax [1] | Tmax [1] | half-life [1] | AUC(0-inf) [2] | clearance [2] | half-life [2] | Vd [2] | Compound |
| --- | --- | --- | --- | --- | --- | --- | --- | --- | --- | --- | --- | --- |
| 100 to 10000 nM | 10 to 100 nM | 1000 to 100000 nM | – | – | – | – | – | – | – | – | – | CC1Cc2cc(Nc3ccncn3)ccc2C(=O)N1 (stereo not shown) [Cpd. No. 23, 3-methyl-6-(pyrimidin-4-ylamino)-3,4-dihydroisoquinolin-1(2H)-one] |
| < 10 nM | 10 to 100 nM | 50 to 1000 nM | – | – | – | – | – | – | – | – | – | CC1CC(=O)c2ccc(Nc3cc(NC(=O)C4CC4)ncn3)cc21 (stereo not shown) [Cpd. No. 19, N-(6-((3-methyl-1-oxo-2,3-dihydro-1H-inden-5-yl)amino)pyrimidin-4-yl)cyclopropanecarboxamide] |
| – | – | < 50 nM | 63.9% | 5660 ng·h/mL | 1140 ng/mL | 0.5 h | 2.9 h | 886 ng·h/mL | 19.1 mL/min/kg | 4.15 h | 3.9 L/kg | Cc1cc(Nc2ncnc(N)c2C)nc2c1C(=O)NC21CCCCC1 [Cpd. No. 71, 2′-((6-amino-5-methylpyrimidin-4-yl)amino)-4′-methylspiro[cyclohexane-1,7′-pyrrolo[3,4-b]pyridin]-5′(6′H)-one] |
| – | 10 to 100 nM | < 50 nM | 25.0% | 2650 ng·h/mL | 425 ng/mL | 4 h | 2.59 h | 1060 ng·h/mL | 16.6 mL/min/kg | 7.34 h | 6.56 L/kg | Cc1cc(Nc2ncnc(N)c2C)cc2c1C(=O)NC21CCCCC1 [Cpd. No. 55, 6′-((6-amino-5-methylpyrimidin-4-yl)amino)-4′-methylspiro[cyclohexane-1,1′-isoindolin]-3′-one] |
| 10 to 100 nM | 10 to 100 nM | 1000 to 100000 nM | – | – | – | – | – | – | – | – | – | Cc1cc(Nc2ccncn2)cc2c1C(=O)NC2C (stereo not shown) [Cpd. No. 33, 3,7-dimethyl-5-(pyrimidin-4-ylamino)isoindolin-1-one] |
| 10 to 100 nM | 10 to 100 nM | 1000 to 100000 nM | – | – | – | – | – | – | – | – | – | CC(C)C1NC(=O)c2ccc(Nc3ccncn3)cc21 (stereo not shown) [Cpd. No. 13, 3-isopropyl-5-(pyrimidin-4-ylamino)isoindolin-1-one] |
| < 10 nM | < 10 nM | < 50 nM | – | – | – | – | – | – | – | – | – | CC1(C)NC(=O)c2c(Cl)cc(Nc3cc(N)ncn3)cc21 [Cpd. No. 43, 5-((6-aminopyrimidin-4-yl)amino)-7-chloro-3,3-dimethylisoindolin-1-one] |
| < 10 nM | < 10 nM | 1000 to 100000 nM | – | – | – | – | – | – | – | – | – | CC1NC(=O)c2cnc(Nc3ccnc(NC(=O)C4CC4)c3)cc21 (stereo not shown) [Cpd. No. 42, N-(4-((1-methyl-3-oxo-2,3-dihydro-1H-pyrrolo[3,4-c]pyridin-6-yl)amino)pyridin-2-yl)cyclopropanecarboxamide] |
| 10 to 100 nM | 10 to 100 nM | 1000 to 100000 nM | – | – | – | – | – | – | – | – | – | O=C1NCCc2cc(Nc3ccncn3)ccc21 [Cpd. No. 10, 6-(pyrimidin-4-ylamino)-3,4-dihydroisoquinolin-1(2H)-one] |
| 10 to 100 nM | 100 to 10000 nM | 1000 to 100000 nM | – | – | – | – | – | – | – | – | – | CC1NC(=O)c2ccc(Nc3ncnc4c3OCCN4)cc21 (stereo not shown) [Cpd. No. 38, 5-(7,8-dihydro-6H-pyrimido[5,4-b][1,4]oxazin-4-ylamino)-3-methyl-isoindolin-1-one] |
| 10 to 100 nM | 10 to 100 nM | 1000 to 100000 nM | – | – | – | – | – | – | – | – | – | CC1NC(=O)c2ccc(Nc3ccncn3)cc21 (stereo not shown) [Cpd. No. 8, 3-methyl-5-(pyrimidin-4-ylamino)isoindolin-1-one] |
| < 10 nM | < 10 nM | 50 to 1000 nM | – | – | – | – | – | – | – | – | – | CC1NC(=O)c2ccc(Nc3cc(NC(=O)C4CC4)ncn3)cc21 (stereo not shown) [Cpd. No. 17, N-(6-((3-methyl-1-oxoisoindolin-5-yl)amino)pyrimidin-4-yl)cyclopropanecarboxamide] |
| < 10 nM | < 10 nM | 50 to 1000 nM | – | – | – | – | – | – | – | – | – | CC1NC(=O)c2c(Cl)cc(Nc3ccncn3)cc21 (stereo not shown) [Cpd. No. 35, 7-chloro-3-methyl-5-(pyrimidin-4-ylamino)isoindolin-1-one] |
| – | – | < 50 nM | 24.2% | 2740 ng·h/mL | 1380 ng/mL | 0.667 h | 2.75 h | 1130 ng·h/mL | 14.8 mL/min/kg | 8.48 h | 4.59 L/kg | COc1c(N)ncnc1Nc1cc(C)c2c(n1)C1(CCCCC1)NC2=O [Cpd. No. 72, 2′-((6-amino-5-methoxypyrimidin-4-yl)amino)-4′-methylspiro[cyclohexane-1,7′-pyrrolo[3,4-b]pyridin]-5′(6′H)-one] |
| 100 to 10000 nM | 10 to 100 nM | 1000 to 100000 nM | – | – | – | – | – | – | – | – | – | CC1(C)NC(=O)c2ccc(Nc3ccncn3)cc21 [Cpd. No. 15, 3,3-dimethyl-5-(pyrimidin-4-ylamino)isoindolin-1-one] |
| < 10 nM | < 10 nM | 50 to 1000 nM | – | – | – | – | – | – | – | – | – | O=C1NCc2cc(Nc3cc(NC(=O)C4CC4)ncn3)ccc21 [Cpd. No. 12, N-(6-((1-oxoisoindolin-5-yl)amino)pyrimidin-4-yl)cyclopropanecarboxamide] |
| 10 to 100 nM | 100 to 10000 nM | 1000 to 100000 nM | – | – | – | – | – | – | – | – | – | CC1NC(=O)c2ccc(Nc3ncnc4c3CCN4)cc21 (stereo not shown) [Cpd. No. 39, 5-(6,7-dihydro-5H-pyrrolo[2,3-d]pyrimidin-4-ylamino)-3-methyl-isoindolin-1-one] |
| < 10 nM | 10 to 100 nM | 1000 to 100000 nM | – | – | – | – | – | – | – | – | – | CC(=O)Nc1cc(Nc2ccc3c(c2)CNC3=O)ncn1 [Cpd. No. 11, N-(6-((1-oxoisoindolin-5-yl)amino)pyrimidin-4-yl)acetamide] |
